Patent publication US10927125B2, “Substituted cinnolines as inhibitors of KRAS G12C” (Araxes Pharma LLC, priority 2013, dated 2021)

Target: T1, KRAS G12C 1-169, his-tagged protein, GDP-loaded (Homo sapiens, UniProt P01116, G12C)
T1 construct: KRAS G12C 1-169, his-tagged protein, GDP-loaded
Test: Biochemical assay: covalent binding of compounds to KRAS G12C, analysed by mass spectrometry
Method: Compounds were tested for activity as follows:
Compounds were diluted to 50× final test concentration in DMSO in 96-well storage plates. […] Reactions were mixed carefully and thoroughly by pipetting up/down with a 200 μl multi-channel pipettor. The plate was sealed well with aluminum plate seal, and stored in drawer at room temperature for 30 min, 2 hour or 24 hrs. 51 μl of 2% formic acid (Fisher cat # A117) in DI H2O was then added to each well followed by mixing with a pipette. The plate was then resealed with aluminum seal and stored on dry ice until analyzed as described below.
The above described assays were analyzed by mass spectrometry according to the following procedure:
The MS instrument is set to positive polarity, 2 GHz resolution, and low mass (1700) mode and allowed to equilibrate for 30 minutes. The instrument is then calibrated, switched to acquisition mode and the appropriate method loaded.
After another 30 minute equilibration time, a blank batch (i.e., buffer) is run to ensure equipment is operating properly. The samples are thawed at 37° C. for 10 minutes, briefly centrifuged, and transfer to the bench top. Wells A1 and H12 are spiked with 1 uL 500 uM internal standard peptide, and the plates centrifuged at 2000×g for 5 minutes. The method is then run and masses of each individual well recorded.
The masses (for which integration data is desired) for each well are pasted into the platemap and exported from the analysis. Masses for the internal standards are exported as well. The data at 50 ppm is extracted for the +19 charge state, and identity of well A1 is assigned using the internal standard spike and integrated. Peak data is exported as a TOF list and the above steps are repeated individually, for the +20, 21, 22, 23, 24, and 25 charge states.

T1 sequence (P01116 1-169 isoform P01116-2 G12C): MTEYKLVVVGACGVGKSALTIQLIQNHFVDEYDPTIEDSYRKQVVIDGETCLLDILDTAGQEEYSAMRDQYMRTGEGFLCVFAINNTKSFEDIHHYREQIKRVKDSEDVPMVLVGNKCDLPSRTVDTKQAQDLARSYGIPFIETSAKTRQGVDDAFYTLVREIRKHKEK

Structure (SMILES)	Binding % (binding measured at 2 h (compounds 48-246))	Binding % (binding measured at 30 min (compounds 247-375))
C=CC(=O)N1CCN(c2c(C(N)=O)cnc3cc(-c4ccccc4F)c(Cl)cc23)CC1 [Compound 189, 4-(4-acryloylpiperazin-1-yl)-6-chloro-7-(2-fluorophenyl)quinoline-3-carboxamide]	++ (++ indicates binding activity greater than 25% and up to 50%)	
C=CC(=O)N1CCN(c2nc(NCC(F)(F)F)nc3c(F)c(-c4c(C)ccc5[nH]ncc45)c(Cl)cc23)CC1 [Compound 356, 1-(4-(6-chloro-8-fluoro-7-(5-methyl-1H-indazol-4-yl)-2-(2,2,2-trifluoroethylamino)quinazolin-4-yl)piperazin-1-yl)prop-2-en-1-one]		+++ (+++ indicates binding activity greater than 50% and up to 75%)
